Consider twelve molecules from patent US9534059B2, “TIKI inhibitors” (Children's Medical Center Corporation, priority 2012, dated 2017).

“Also recorded” adds a separate entry of the source.

For assay [1], the target named is T1, TIKI2N (Homo sapiens, UniProt A6NFA1).
T1 construct: which is the extracellular domain of TIKI2 fused with a carboxyl FLAG tag and a 6×HIS tag; made in house; host or cells: HEK293T
T1 sequence (A6NFA1 20-486 limits assumed): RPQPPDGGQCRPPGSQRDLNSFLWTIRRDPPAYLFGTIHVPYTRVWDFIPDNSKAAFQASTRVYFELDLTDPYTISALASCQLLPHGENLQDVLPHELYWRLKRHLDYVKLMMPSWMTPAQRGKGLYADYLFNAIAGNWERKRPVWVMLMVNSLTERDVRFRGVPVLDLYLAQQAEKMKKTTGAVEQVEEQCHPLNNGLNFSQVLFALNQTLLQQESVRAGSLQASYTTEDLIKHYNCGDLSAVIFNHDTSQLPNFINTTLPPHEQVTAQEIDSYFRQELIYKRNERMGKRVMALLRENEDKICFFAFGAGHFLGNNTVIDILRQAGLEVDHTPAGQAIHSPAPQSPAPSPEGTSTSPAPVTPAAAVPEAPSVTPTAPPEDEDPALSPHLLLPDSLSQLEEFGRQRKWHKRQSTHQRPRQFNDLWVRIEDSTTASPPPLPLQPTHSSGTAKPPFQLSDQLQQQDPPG
Description: In vitro treatment of HA-Wnt3a with purified TIKI2N (cleavage, Western blotting). Format: biochemical. The settings on record: for TIKI2N activity (cleavage of HA-Wnt3a) in the presence of protease inhibitor / Effects of divalent metals on TIKI2N activity: in vitro; for TIKI2N activity (cleavage of HA-Wnt3a) in the presence of protease inhibitor: purified TIKI2N + recombinant HA-Wnt3a, Western blotting; for Rescue of TIKI2N activity with divalent metals after inhibition with 1,10-Phenanthroline: 20 μM 1,10-Phenanthroline 1 hr, then 50 μM metal ion for another 2 hrs; for Effects of divalent metals on TIKI2N activity: 50 μM of each divalent metal ion, 2 hrs. The method, then:
HEK293T cells in 100 mm dishes were transfected with TIKI2N-, KRM2N-, TIKI2NΔ-FLAG-6×HIS (“6×HIS” disclosed as SEQ ID NO: 57) or HA-Wnt3a vectors. The medium containing transfection mixture was replaced with 6 ml fresh medium 24 hrs post-transfection, and incubated for another 24 hrs. To purify TIKI2N, KRM2N and TIKI2NΔ, cells were washed with PBS and lysed in ice-cold PBS containing 0.2% NP-40, 20 mM imidazole and the protease inhibitor cocktail (Roche) to make whole cell lysates (WCL). WCL was mixed with Ni-NTA agarose beads (QIAGEN) and incubated at 4° C. with rotation for 1 hr. The beads were pelleted by centrifugation and washed four times with PBS/0.2% NP-40 and the FLAG-6×HIS (“6×HIS” disclosed as SEQ ID NO: 57) fusion proteins were eluted with PBS/0.2% NP-40 containing 100 mM imidazole. The elute was diluted 3 time with PBS/0.2% NP-40 and were mixed with FLAG M2 agarose beads (Sigma). Following 2 hrs incubation with rotation at 4° C., the beads were pelleted by centrifugation and washed three times with PBS/0.2% NP-40 and one time with HEPES buffer (50 mM HEPES (pH 7.4), 100 mM NaCl, 0.2% NP-40). The FLAG fusion proteins were eluted with HEPES buffer containing 50 μg/ml 3×FLAG peptide. To purify HA-Wnt3a, the conditioned medium (CM) was collected and was cleared by centrifugation and 0.2% NP-40 was added. The CM was mixed with anti-HA agarose beads (Sigma). Following 2 hrs incubation with rotation at 4° C., the beads were pelleted by centrifugation and washed three times with PBS/0.2% NP-40 and one time with HEPES buffer (50 mM HEPES (pH 7.4), 100 mM NaCl, 0.2% NP-40). The HA-Wnt3a protein was eluted with HEPES buffer containing 300 μg/ml HA peptide.
About 50 ng purified TIKI2N, KRM2N, or TIKI2NΔ protein was mixed with 10 ng purified HA-Wnt3a in a total volume of 10 μl HEPES buffer (50 mM HEPES (pH 7.4), 100 mM NaCl, 0.2% NP-40) and incubated at 30° C. To examine TIKI2N activity in different pH conditions, the following buffer was used instead of HEPES, 100 mM sodium acetate (pH 5.5), 100 mM Tris-HCl (pH 6, 7, 8, 9) or 50 mM CAPS (pH 10, 11). The reaction product was analyzed by SDS-PAGE and Western blotting with anti-HA and anti-Wnt3a antibodies. For mass spectrometric analysis, 200 ng of recombinant Wnt3a (from Stem RD) was incubated with about 500 ng of TIKIN or KRM2N overnight at 30° C. and separated by SDS-PAGE. The Wnt3a bands were cut, trypsin digested and subjected to mass spectrometric analyses.
TIKI protease activity was characterized under in vitro conditions. […] Different protease inhibitors were applied to survey which protease family TIKI might belong to. […] Metalloproteases are defined by their dependence on divalent metals as co-factors (Barrett, 1998).
In general terms: A western blot detects proteins with antibodies after separation by electrophoresis.

In assay [2] the test system is Wnt3a. Description: TOPFLASH assay of TIKI2N mutants co-transfected with Wnt3a in HEK293T cells. The class given is cell-based, human. The settings on record: 5, 2.5, 1.25 and 0.612 ng plasmid with Wnt3a 20 ng. As to the method: FIG. 8B. Bar graph showing the results of a TOPFLASH assay testing TIKI2 mutations in Human TIKI2N construct (no transmembrane domain). Decreasing doses of 5, 2.5, 1.25 and 0.612 ng of the indicated TIKI2N expression plasmid were cotransfected with Wnt3a (20 ng) in HEK293T cells.
HEK293T, HeLa, L and L-Wnt3a cells (from ATCC) were maintained in Dulbecco's modified Eagle's medium (DMEM; Invitrogen) supplemented with 10% fetal bovine serum (FBS) and 1% penicillin-streptomycin-glutamine (Invitrogen). Lipofectamine 2000 (Invitrogen) or Fugene6 (Roche) was used for all cell transfections. L and L-Wnt3a cells that stably express TIKI2 were generated by infecting cells with retroviruses and selected by puromycin. L cells stably expressing Wnt3a(FLAG) were established by transfecting L cells with a Wnt3a(FLAG) expressing vector and selected with neomycine. L cells stably expressing both Wnt3a(FLAG) and TIKI2 were also generated. TOPFLASH reporter assay was performed as previously described (MacDonald et al., 2008).
A Wnt-responsive reporter (TOP-FLASH) assay was performed to test mutations at T56A, H58A, E85A, E205A, H256A, R303A, H331A in a Human TIKI2N construct (no transmembrane domain). Decreasing doses of 5, 2.5, 1.25 and 0.612 ng of the indicated TIKI2N expression plasmid were co-transfected with Wnt3a (20 ng) in HEK293T cells. […] T56A, H256A, and R303A had no effect on TIM activity, and so are likely to be less important sites for function.

Take `c1cnc2c(c1)ccc1cccnc12` [1,10-phenanthroline]: the “TIKI2N activity (cleavage of HA-Wnt3a) in the presence of protease inhibitor” value (from here on “TIKI2N activity … of protease inhibitor”) in assay [1] is “potently inhibited”; in assay [1] (listed as 1, 10-Phenanthroline) it was “sensitive”. Regarding `CC(C)C[C@H](NC(=O)[C@@H](O)[C@H](N)Cc1ccccc1)C(=O)O` [Bestatin], the “TIKI2N activity … of protease inhibitor” value in assay [1] is listed as “not”.

Turning to `[Co+2]` [Co^2+], in assay [1], the “Rescue of TIKI2N activity with divalent metals after inhibition with 1,10-Phenanthroline” value is recorded as “rescued; also recorded: fully restored” and the “Effects of divalent metals on TIKI2N activity” value (from here on “Effects of divalent metals”) was “enhanced”. `[Cu+2]` [Cu^2+]: in assay [1], the “Effects of divalent metals” value was “inhibited TIKI2N activity”. Turning to `O=C(O)CN(CCN(CC(=O)O)CC(=O)O)CC(=O)O` [EDTA], the “TIKI2N activity … of protease inhibitor” value in assay [1] is recorded as “inhibited TIKI2N activity; also recorded: inhibited, albeit more mildly”. On to `[Mn+2]` [Mn^2+], for which, in assay [1], the “Rescue of TIKI2N activity with divalent metals after inhibition with 1,10-Phenanthroline” value is on record as “rescued; also recorded: fully restored” and the “Effects of divalent metals” value is listed as “enhanced”. `[Ni+2]` [Ni^2+]: the “Effects of divalent metals” value in assay [1] is “inhibited TIKI2N activity”. On the same count and under the same terms, in the case of `[Zn+2]` [Zn^2+] it was “inhibited TIKI2N activity”.

B1: H58A: alanine mutation in Human TIKI2N construct (no transmembrane domain) (protein, UniProt A6NFA1 20-494, looked up, variant H58A)
extracellular domain: RPQPPDGGQCRPPGSQRDLNSFLWTIRRDPPAYLFGTIAVPYTRVWDFIPDNSKAAFQASTRVYFELDLTDPYTISALASCQLLPHGENLQDVLPHELYWRLKRHLDYVKLMMPSWMTPAQRGKGLYADYLFNAIAGNWERKRPVWVMLMVNSLTERDVRFRGVPVLDLYLAQQAEKMKKTTGAVEQVEEQCHPLNNGLNFSQVLFALNQTLLQQESVRAGSLQASYTTEDLIKHYNCGDLSAVIFNHDTSQLPNFINTTLPPHEQVTAQEIDSYFRQELIYKRNERMGKRVMALLRENEDKICFFAFGAGHFLGNNTVIDILRQAGLEVDHTPAGQAIHSPAPQSPAPSPEGTSTSPAPVTPAAAVPEAPSVTPTAPPEDEDPALSPHLLLPDSLSQLEEFGRQRKWHKRQSTHQRPRQFNDLWVRIEDSTTASPPPLPLQPTHSSGTAKPPFQLSDQLQQQDPPGPASSSAPT
modifications: extracellular domain
With B1, the “TIKI activity of TIKI2N mutants (inhibition of Wnt3a-induced TOPFLASH)” value in assay [2] was “inactive”.

B2: E85A: alanine mutation in Human TIKI2N construct (no transmembrane domain) (protein, UniProt A6NFA1 20-494, looked up, variant E85A)
extracellular domain: RPQPPDGGQCRPPGSQRDLNSFLWTIRRDPPAYLFGTIHVPYTRVWDFIPDNSKAAFQASTRVYFALDLTDPYTISALASCQLLPHGENLQDVLPHELYWRLKRHLDYVKLMMPSWMTPAQRGKGLYADYLFNAIAGNWERKRPVWVMLMVNSLTERDVRFRGVPVLDLYLAQQAEKMKKTTGAVEQVEEQCHPLNNGLNFSQVLFALNQTLLQQESVRAGSLQASYTTEDLIKHYNCGDLSAVIFNHDTSQLPNFINTTLPPHEQVTAQEIDSYFRQELIYKRNERMGKRVMALLRENEDKICFFAFGAGHFLGNNTVIDILRQAGLEVDHTPAGQAIHSPAPQSPAPSPEGTSTSPAPVTPAAAVPEAPSVTPTAPPEDEDPALSPHLLLPDSLSQLEEFGRQRKWHKRQSTHQRPRQFNDLWVRIEDSTTASPPPLPLQPTHSSGTAKPPFQLSDQLQQQDPPGPASSSAPT
modifications: extracellular domain
For the molecule B2, in assay [2], the “TIKI activity of TIKI2N mutants (inhibition of Wnt3a-induced TOPFLASH)” value is “inactive”.

B3: E205A: alanine mutation in Human TIKI2N construct (no transmembrane domain) (protein, UniProt A6NFA1 20-494, looked up, variant E205A)
extracellular domain: RPQPPDGGQCRPPGSQRDLNSFLWTIRRDPPAYLFGTIHVPYTRVWDFIPDNSKAAFQASTRVYFELDLTDPYTISALASCQLLPHGENLQDVLPHELYWRLKRHLDYVKLMMPSWMTPAQRGKGLYADYLFNAIAGNWERKRPVWVMLMVNSLTERDVRFRGVPVLDLYLAQQAEKMKKTTGAVAQVEEQCHPLNNGLNFSQVLFALNQTLLQQESVRAGSLQASYTTEDLIKHYNCGDLSAVIFNHDTSQLPNFINTTLPPHEQVTAQEIDSYFRQELIYKRNERMGKRVMALLRENEDKICFFAFGAGHFLGNNTVIDILRQAGLEVDHTPAGQAIHSPAPQSPAPSPEGTSTSPAPVTPAAAVPEAPSVTPTAPPEDEDPALSPHLLLPDSLSQLEEFGRQRKWHKRQSTHQRPRQFNDLWVRIEDSTTASPPPLPLQPTHSSGTAKPPFQLSDQLQQQDPPGPASSSAPT
modifications: extracellular domain
In the case of B3, the “TIKI activity of TIKI2N mutants (inhibition of Wnt3a-induced TOPFLASH)” value in assay [2] was “inactive”.

B4: H331A: alanine mutation in Human TIKI2N construct (no transmembrane domain) (protein, UniProt A6NFA1 20-494, looked up, variant H331A)
extracellular domain: RPQPPDGGQCRPPGSQRDLNSFLWTIRRDPPAYLFGTIHVPYTRVWDFIPDNSKAAFQASTRVYFELDLTDPYTISALASCQLLPHGENLQDVLPHELYWRLKRHLDYVKLMMPSWMTPAQRGKGLYADYLFNAIAGNWERKRPVWVMLMVNSLTERDVRFRGVPVLDLYLAQQAEKMKKTTGAVEQVEEQCHPLNNGLNFSQVLFALNQTLLQQESVRAGSLQASYTTEDLIKHYNCGDLSAVIFNHDTSQLPNFINTTLPPHEQVTAQEIDSYFRQELIYKRNERMGKRVMALLRENEDKICFFAFGAGAFLGNNTVIDILRQAGLEVDHTPAGQAIHSPAPQSPAPSPEGTSTSPAPVTPAAAVPEAPSVTPTAPPEDEDPALSPHLLLPDSLSQLEEFGRQRKWHKRQSTHQRPRQFNDLWVRIEDSTTASPPPLPLQPTHSSGTAKPPFQLSDQLQQQDPPGPASSSAPT
modifications: extracellular domain
Turning to B4, the “TIKI activity of TIKI2N mutants (inhibition of Wnt3a-induced TOPFLASH)” value in assay [2] was “inactive”.
